Here are results for five molecules from ChEMBL document CHEMBL5126521, “Analgesic Opioid Ligand Discovery Based on Nonmorphinan Scaffolds Derived from Natural Sources” (J Med Chem, 2022).

In series [1] the target is T1, Mu-type opioid receptor (Homo sapiens, UniProt P35372). The experiment in a line: Binding affinity to MOP (unknown origin).
For series [2], the target named is T2, Delta-type opioid receptor (Homo sapiens, UniProt P41143). The experiment in a line: Binding affinity to DOP (unknown origin).
T2 sequence (P41143 whole entry): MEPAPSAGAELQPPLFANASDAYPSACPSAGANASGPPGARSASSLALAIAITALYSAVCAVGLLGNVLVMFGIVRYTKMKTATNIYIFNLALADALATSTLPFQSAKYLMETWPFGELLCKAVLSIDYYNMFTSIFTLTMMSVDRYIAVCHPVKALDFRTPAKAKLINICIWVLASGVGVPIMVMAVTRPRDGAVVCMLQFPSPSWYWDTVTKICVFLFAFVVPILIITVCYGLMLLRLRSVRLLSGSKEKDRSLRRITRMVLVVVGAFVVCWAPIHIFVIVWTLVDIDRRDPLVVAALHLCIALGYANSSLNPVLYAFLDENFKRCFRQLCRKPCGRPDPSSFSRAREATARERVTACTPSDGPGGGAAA
The target of series [3] is Mu-type opioid receptor (Cavia porcellus, UniProt P97266). The experiment in a line: Displacement of [3H]DAMGO from guinea pig brain membrane MOP incubated for 1 hr by scintillation counter analysis. It is filed as cell membranes. A general note: In a radioligand displacement assay an active substance lowers the binding of a labelled ligand.
Mu-type opioid receptor (Cavia porcellus, UniProt P97266), sequence (P97266 whole entry): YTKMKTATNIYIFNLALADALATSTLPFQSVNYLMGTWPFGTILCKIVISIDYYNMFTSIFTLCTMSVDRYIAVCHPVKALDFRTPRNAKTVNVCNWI
Series [4] in a line: Displacement of [3H]naltrindole from guinea pig brain membrane DOP incubated for 3 hr by scintillation counter analysis. In kind it is cell membranes, Cavia porcellus.
Series [5] deals with T1, Mu-type opioid receptor. The experiment in a line: Agonist activity at MOP (unknown origin). In kind it is functional.
The target in series [6] is Kappa-type opioid receptor (Cavia porcellus, UniProt P41144). The experiment in a line: Displacement of [3H]U69593 from guinea pig brain membrane KOP incubated for 1 hr by scintillation counter analysis. In kind it is cell membranes.
Kappa-type opioid receptor (Cavia porcellus, UniProt P41144), sequence (P41144 whole entry): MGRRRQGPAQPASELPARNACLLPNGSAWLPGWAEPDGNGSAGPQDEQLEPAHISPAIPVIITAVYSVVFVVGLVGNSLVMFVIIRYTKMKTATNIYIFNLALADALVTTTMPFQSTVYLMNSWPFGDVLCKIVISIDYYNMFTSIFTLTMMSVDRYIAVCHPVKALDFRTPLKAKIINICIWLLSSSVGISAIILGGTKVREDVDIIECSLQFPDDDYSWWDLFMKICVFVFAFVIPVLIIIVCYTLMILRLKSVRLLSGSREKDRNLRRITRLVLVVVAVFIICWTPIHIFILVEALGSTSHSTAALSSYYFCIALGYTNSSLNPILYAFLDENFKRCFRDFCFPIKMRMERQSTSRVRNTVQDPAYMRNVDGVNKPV
The target in series [7] is Delta-type opioid receptor (Mus musculus, UniProt P32300). The experiment in a line: Inhibition of mouse DOP.
Delta-type opioid receptor (Mus musculus, UniProt P32300), sequence (P32300 whole entry): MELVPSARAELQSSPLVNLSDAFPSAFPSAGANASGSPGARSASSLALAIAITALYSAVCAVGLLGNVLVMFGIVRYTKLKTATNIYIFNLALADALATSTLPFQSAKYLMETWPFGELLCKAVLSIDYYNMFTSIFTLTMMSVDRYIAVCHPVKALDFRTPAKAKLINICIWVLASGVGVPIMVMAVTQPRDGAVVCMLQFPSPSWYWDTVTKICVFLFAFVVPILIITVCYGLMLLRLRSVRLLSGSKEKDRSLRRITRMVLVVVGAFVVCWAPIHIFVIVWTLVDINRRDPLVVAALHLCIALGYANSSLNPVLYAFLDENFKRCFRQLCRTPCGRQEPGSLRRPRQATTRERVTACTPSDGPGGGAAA
Series [8] deals with Kappa-type opioid receptor (Mus musculus, UniProt P33534). The experiment in a line: Inhibition of mouse KOP.
Kappa-type opioid receptor (Mus musculus, UniProt P33534), sequence (P33534 whole entry): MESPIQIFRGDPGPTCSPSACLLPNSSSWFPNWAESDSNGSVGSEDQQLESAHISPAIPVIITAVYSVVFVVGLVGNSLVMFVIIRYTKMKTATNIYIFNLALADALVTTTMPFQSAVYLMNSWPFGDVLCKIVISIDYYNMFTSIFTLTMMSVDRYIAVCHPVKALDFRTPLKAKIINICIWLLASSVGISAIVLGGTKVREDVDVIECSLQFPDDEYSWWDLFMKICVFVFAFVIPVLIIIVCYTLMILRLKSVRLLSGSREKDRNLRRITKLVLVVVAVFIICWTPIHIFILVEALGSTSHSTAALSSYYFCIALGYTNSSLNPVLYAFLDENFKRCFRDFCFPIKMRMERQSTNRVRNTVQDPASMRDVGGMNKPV
Series [9] addresses T2, Delta-type opioid receptor. The experiment in a line: Inhibition of DOP (unknown origin).
The target of series [10] is T3, Kappa-type opioid receptor (Homo sapiens, UniProt P41145). The experiment in a line: Inhibition of KOP (unknown origin).
T3 sequence (P41145 whole entry): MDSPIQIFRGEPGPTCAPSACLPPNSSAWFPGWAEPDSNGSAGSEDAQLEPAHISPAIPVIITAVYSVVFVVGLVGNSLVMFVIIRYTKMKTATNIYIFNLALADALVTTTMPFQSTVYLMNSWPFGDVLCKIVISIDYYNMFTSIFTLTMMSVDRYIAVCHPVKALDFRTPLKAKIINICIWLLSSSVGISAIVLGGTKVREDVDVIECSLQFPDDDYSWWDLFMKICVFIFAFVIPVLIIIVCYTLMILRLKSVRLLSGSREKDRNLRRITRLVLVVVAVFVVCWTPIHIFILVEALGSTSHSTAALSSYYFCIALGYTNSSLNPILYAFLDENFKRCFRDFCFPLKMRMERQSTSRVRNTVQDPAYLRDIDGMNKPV
The test system of series [11] is Mus musculus. The experiment in a line: Antinociceptive activity in po dosed mouse by tail flick assay. In kind it is functional.
In series [12] the test system is Mus musculus. The experiment in a line: Antinociceptive activity in sc dosed mouse by tail flick assay. In kind it is functional. A general note: Hot-plate and tail-flick tests time the reaction to a heat stimulus.
The subject of series [13] is Mus musculus. The experiment in a line: Antinociceptive activity in po dosed mouse by hot plate assay. It is filed as functional.
Series [14] concerns Mus musculus. The experiment in a line: Antinociceptive activity in sc dosed mouse by hot plate assay. It is filed as functional.
For series [15], the system named is Mus musculus. The experiment in a line: Antinociceptive activity in po dosed mouse. It is filed as functional.
In series [16] the test system is Mus musculus. The experiment in a line: Antinociceptive activity in sc dosed visceral pain mouse model. In kind it is functional.
Series [17] can be described thus: Toxicity in po dosed mouse assessed as antinociceptive activity tolerance by tail flick assay. It is filed as organism-based. Conditions: in vivo.
Series [18] is described as follows: Toxicity in sc dosed mouse assessed as antinociceptive activity tolerance by tail flick assay. It is filed as organism-based. The conditions noted are these: in vivo.
In series [19] the target is T1, Mu-type opioid receptor. The experiment in a line: Inhibition of MOP (unknown origin).
Series [20] concerns Mus musculus. The experiment in a line: Antinociceptive activity in ip dosed mouse assessed as tail flick latency. In kind it is functional.
Series [21] in a line: Toxicity in ip dosed mouse assessed as antinociceptive tolerance. It is filed as organism-based. Conditions: in vivo.
A short description of series [22]: Toxicity in po dosed mouse assessed as antinociceptive activity tolerance by hot plate assay. In kind it is organism-based. The conditions noted are these: in vivo.
Series [23] relates to Mus musculus. The experiment in a line: Antinociceptive activity in po dosed visceral pain mouse model. It is filed as functional.
For series [24], the system named is Mus musculus. The experiment in a line: Antinociceptive activity in sc dosed mouse. It is filed as functional.
Series [25] addresses T3, Kappa-type opioid receptor. The experiment in a line: Agonist activity at KOP (unknown origin). It is filed as functional.

The structures appear in SMILES notation. Where only a bound is given, the exact number is not on record here.

T1 sequence (P35372 whole entry): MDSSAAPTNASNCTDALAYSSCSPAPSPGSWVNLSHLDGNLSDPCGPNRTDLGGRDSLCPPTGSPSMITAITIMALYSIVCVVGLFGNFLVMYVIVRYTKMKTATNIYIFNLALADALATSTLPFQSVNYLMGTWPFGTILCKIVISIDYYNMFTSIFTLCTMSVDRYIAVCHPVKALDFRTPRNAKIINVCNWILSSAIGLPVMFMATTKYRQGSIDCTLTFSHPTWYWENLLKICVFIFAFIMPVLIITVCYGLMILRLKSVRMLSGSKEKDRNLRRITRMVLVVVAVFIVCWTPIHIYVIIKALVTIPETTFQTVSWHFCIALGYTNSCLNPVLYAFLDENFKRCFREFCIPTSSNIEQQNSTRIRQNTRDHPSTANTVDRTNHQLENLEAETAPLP

One may read the Ki as a measure of affinity in units of concentration, obtained from inhibition or displacement. Higher therefore signals lower affinity. The EC50 is the concentration that produces a half-maximal response. Higher therefore signals lower potency in that assay. What is called IC50 is the concentration that inhibits the measured activity by half. One may read the ED50 as the midpoint of the dose-response relation. `CC[C@@H]1CN2CC[C@]3(O)c4c(cccc4OC)NC3[C@@H]2C[C@@H]1/C(=C\OC)C(=O)OC` (some centres undefined): the inhibitory constant (Ki) amounted to 47 nM at Mu-type opioid receptor [1]; 219 nM in [2]; 11 nM on Mu-type opioid receptor [3]; 96 nM in series [4]; 85 nM in series [6]. Besides, the half-maximal effective concentration (EC50) on Mu-type opioid receptor [5] is 34.5 nM. Moreover, the IC50 in series [7] worked out at 10000 nM; in series [8], 7900 nM; in [9], 2520 nM; in [10], 691 nM. Moreover, the median effective dose (ED50) in the series with Mus musculus [11] is 4.4 mg/kg; in the series with Mus musculus [12], 0.8 mg/kg; with Mus musculus [13], 2.2 mg/kg; with Mus musculus [14], 0.93 mg/kg; in the series with Mus musculus [15] it was 1.1 mg/kg; in the series with Mus musculus [16] it was 0.15 mg/kg. Besides, the ED50 turned out to be 7.5 mg/kg in series [17] and 1.19 mg/kg in [18].
On to `C=C[C@H]1CN2CCc3c([nH]c4cccc(OC)c34)[C@@H]2C[C@@H]1/C(=C\OC)C(=O)OC`, for which the Ki in [2] was greater than 10000 nM. Also, the IC50 at Mu-type opioid receptor [19] was 2200 nM; in [9] it was greater than 10000 nM; in [10] it was 10000 nM.
As for `COC(=O)[C@@H]1C=C(OC(=O)c2ccccc2)C(=O)[C@H]2[C@@]1(C)CC[C@H]1C(=O)O[C@H](c3ccoc3)C[C@]21C`, the ED50 in the series with Mus musculus [20] was determined as 5 mg/kg; in series [21] it was 7.9 mg/kg.
Regarding `CC[C@@H]1CN2CC[C@@]34OCCO[C@@]3(Nc3ccc(F)c(OC)c34)[C@@H]2C[C@@H]1/C(=C\OC)C(=O)OC`, the inhibition constant (Ki) on Mu-type opioid receptor [3] was determined as 7.3 nM; in [4], 350 nM; in series [6], 18 nM. Moreover, the ED50 came out at 1.3 mg/kg in [22]; 2.8 mg/kg with Mus musculus [11]; 0.6 mg/kg in the series with Mus musculus [12]; 3 mg/kg with Mus musculus [13]; 0.7 mg/kg in the series with Mus musculus [14]; 11.1 mg/kg in series [17]. For the same molecule, the 50% effective dose (ED50) came out at 0.6 mg/kg in the series on Mus musculus [23] and 0.1 mg/kg in the series on Mus musculus [24].
`CC[C@@H]1CN2CCc3c([nH]c4cccc(OC)c34)[C@@H]2C[C@@H]1/C(=C\OC)C(=O)OC` showed an inhibition constant (Ki) in series [2] greater than 10000 nM. The molecule also came in with an IC50 in series [9] greater than 10000 nM. In [25], this molecule came in with an EC50 of 8500 nM. The 50% effect level with Mus musculus [11] (ED50) was put at a dose of 2.1 mg/kg.
